Source: publication PMC11334910, “Activity-Based Protein Profiling of RHBDL4 Reveals Proteolysis of the Enzyme and a Distinct Inhibitor Profile” (ACS Chemical Biology, 2024)
Like-named read-outs stand apart in the source and are kept apart here.

Columns and labels:
human RHBDL4 (hRHBDL4) [1] = target: T1, human RHBDL4 (hRHBDL4) (Homo sapiens, UniProt Q8TEB9); assay: competitive ABPP with FP-Rh at […]; assay type: biochemical; set-up: gene RHBDD1; hRHBDL4 in HEK293T membrane proteome
T1 sequence (Q8TEB9 1-315): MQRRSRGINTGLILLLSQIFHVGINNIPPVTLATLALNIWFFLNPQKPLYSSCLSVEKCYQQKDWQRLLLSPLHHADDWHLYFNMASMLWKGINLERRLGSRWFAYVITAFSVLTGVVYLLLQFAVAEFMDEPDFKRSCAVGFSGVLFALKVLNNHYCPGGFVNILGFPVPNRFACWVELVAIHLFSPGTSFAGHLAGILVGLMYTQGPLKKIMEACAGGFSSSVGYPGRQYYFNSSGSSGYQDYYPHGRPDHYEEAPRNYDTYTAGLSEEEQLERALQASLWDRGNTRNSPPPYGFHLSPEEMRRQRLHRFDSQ

[2] = target: T2, hPARL (presenilin-associated rhomboid-like protein, mitochondrial) (Homo sapiens, UniProt Q9H300); assay: competitive ABPP, dose-response; assay type: cell-based
T2 construct: gene PARL; hPARL in HEK293T membrane proteome
T2 sequence (Q9H300 53-379): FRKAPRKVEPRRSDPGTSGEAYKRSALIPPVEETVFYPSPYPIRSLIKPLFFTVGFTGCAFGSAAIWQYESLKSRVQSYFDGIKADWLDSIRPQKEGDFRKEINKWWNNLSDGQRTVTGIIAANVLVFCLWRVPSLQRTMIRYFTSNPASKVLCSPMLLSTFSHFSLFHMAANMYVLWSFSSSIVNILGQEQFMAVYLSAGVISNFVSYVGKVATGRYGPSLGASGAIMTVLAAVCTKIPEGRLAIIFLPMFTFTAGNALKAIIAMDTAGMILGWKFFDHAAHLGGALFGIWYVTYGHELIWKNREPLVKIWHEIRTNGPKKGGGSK

[3] = target: T2, hPARL (presenilin-associated rhomboid-like protein, mitochondrial); assay: competitive ABPP, dose-response; assay type: biochemical
human RHBDL4 (hRHBDL4) [4] = target: T1, human RHBDL4 (hRHBDL4); assay: competitive ABPP with FP-Rh, dose-response; assay type: biochemical; set-up: gene RHBDD1

O=C(OCN1C(=O)c2ccccc2S1(=O)=O)c1ccccc1Cl [BSc5195]
competitive ABPP with FP-Rh at 100 μM (human RHBDL4 (hRHBDL4) [1]): nearly complete competition at 100

O=C1CCC(=O)N1S(=O)(=O)c1ccccc1 [WHP3A]
IC50 [2]: low micromolar

O=c1oc(Cl)c(Cl)c2ccccc12 [3,4-DCI]
IC50 [3]: 25 µM
IC50 (human RHBDL4 (hRHBDL4) [4]): 1100 nM
